From a melting point compilation (Tetko et al.; mined from patent text by program, amines drawn as free bases though some values may be those of a salt)

| SMILES | melting point |
| --- | --- |
| COC(=O)c1c(C(F)(F)F)[nH]c2c(OCc3ccccc3)cc3c(c12)C(CCl)CN3C(=O)OC(C)(C)C (centres undefined) | 162 °C |
| COC(=O)c1nc(Cl)c(F)c(N)c1Br | 138 to 139 °C |
| Cc1c(C(F)(F)F)cnc(O)c1Cl | 204 to 205 °C |
| CCOC(=O)c1cc(N)cc(N)c1 | 77 to 78 °C |
| CNC(=S)N(C)Cc1ccc(Cl)nc1 | 109 to 110 °C |
| O=[N+]([O-])c1ccc(-c2nc(-c3ccco3)no2)c(Cl)c1 | 124 to 125 °C |
| CCOc1ccc(S(=O)(=O)NCc2ccccn2)cc1-c1nc2cccnc2c(=O)[nH]1 | 230 to 231 °C |
| CC(C)(C)OC(=O)NCCS(C)(=O)=O | 85 to 86 °C |
| C=CCc1cc(C(=O)OCC)ccc1OCC1(O)CN2CCC1CC2 (centres undefined) | 143 to 145 °C |
| CN(C)c1ccc(NC(=O)N(CC2CCCC(CN(C(=O)Nc3ccc(N(C)C)cc3)C3CC4CCC3C4)C2)C2CC3CCC2C3)cc1 (centres undefined) | 110 to 115 °C |
| O=[N+]([O-])c1cc2c(cc1C=Cc1ccccn1)OCO2 | 167 to 170 °C |
| CCN1C(=O)C(C)(C)C(=O)N(C)c2cc(CN(CCn3cc(C)c4oc(C)cc4c3=O)C(C)c3cccnc3C)ccc21 (centres undefined) | 169 to 170 °C |
| O=C(NO)c1ccc(CNC(=O)c2[nH]c(-c3ccccc3)cc2-c2ccc(F)cc2)o1 | 152 to 153 °C |
| O=C1Nc2ccc(C3CCCCC3)cc2C12OCCO2 | 178 to 180 °C |
| Nc1nc(SCc2ccccn2)nc(Cl)c1Br | 119 to 120 °C |
| CCCc1nc2c(N)ncc(Br)c2n1CCOCCNC(=O)NC1CCCCC1 | 185 to 186 °C |
| COc1ccc(C2=NCc3nnc(CN(C)C)n3-c3ccc(Cl)cc32)cc1 | 224 to 225 °C |
| CC(=O)C(C)(C)c1nsc2ccc(-n3c(=O)cc(C(F)(F)F)n(C)c3=O)cc12 | 195 to 196 °C |
| COC(=O)c1ccccc1S(=O)(=O)NC(=O)Nc1ncc(C)n(C)c1=O | 192 to 193 °C |

| SMILES | melting point |
| --- | --- |
| CC(CCC(F)(F)C(C)(C)O)C1CCC2C3CC=C4CC(O)CC(O)C4(C)C3CCC12C (centres undefined) | 177 to 179 °C |
| CCCn1c(CC)c2c3c(cccc31)C1CC(NC(=S)N(CC)CC)CN(C)C1C2 (centres undefined) | 173 to 175 °C |
| COc1cc(OC)nc(Sc2cccc(Cl)c2C(=O)O)n1 | 148 to 151 °C |
| CCOC(=O)c1ccc2c(c1)S(=O)c1cc([N+](=O)[O-])ccc1-2 (centres undefined) | 245 to 250 °C |
| COc1cccc(C=Cc2nc3c(s2)N(S(C)(=O)=O)CCC3)c1OC | 134 to 136 °C |
| COC1=C(OC)C(O)C(CC=C(C)CCC=C(C)CCC=C(C)C)C(C)C1=O (centres undefined) | 48 to 52 °C |
| c1ccc(NCCCCCCCNc2ccccc2)cc1 | 52 to 54 °C |
| FC(F)(F)c1ccc(COc2ncncc2Oc2ccccc2)cc1 | 56 to 57 °C |
| O=C(Nc1ncccn1)c1c(O)ccc2cc(-c3cccc(O)c3)ccc12 | 156 °C |
| CC(C)(C)OC(=O)N[C@@H](CCC(=O)Oc1ccc(-c2nn(C3CCCC3)c3c(F)cccc23)cc1)C(=O)OC(C)(C)C | 92 to 93 °C |
| CCCCc1nc(C(O)C(C)(C)C)c(C(N)=O)n1Cc1ccc(-c2ccccc2-c2nnn[nH]2)cc1 (centres undefined) | 157 to 160 °C |
| Cc1ncccc1Oc1ccc(C(=N)Nc2cc(Cl)cc(NC(=O)C=Cc3ccccc3C(F)(F)F)c2)cc1 | 114 to 119 °C |
| Brc1ccc(CN2CCOCC2)cc1 | 68 to 71 °C |
| CCOc1nc(C(F)(F)F)cc(=O)n1-c1cc(O)c(Br)cc1F | 160 to 161 °C |
| O=Cc1c(N2CCNCC2)n(Cc2ccccc2)c2ccccc12 | 163 to 165 °C |
| CC(C)c1nsc(N=CN(C)C)c1C#N | 95 to 97 °C |
| CCC(O)(c1ccc(OCc2ccccc2)cc1)c1cccc(Cl)c1 (centres undefined) | 52 to 53 °C |
| CCCC[C@@](C)(O)C(=O)O | 67.8 to 67.9 °C |

Results, then the compound that gave them:

| melting point | SMILES |
| --- | --- |
| 125 °C | CCC(=O)Oc1cccc2c1C(=O)c1c(OC(=O)CC)cccc1C2C(=O)CC |
| > 260 °C | N#Cc1ccc(-c2ccc(C(=O)O)nc2)cc1 |
| 224 to 225 °C | Cc1c(-c2cc(C(F)(F)F)cc(C(F)(F)F)c2)c(F)cc2nc(N)nc(N)c12 |
| 90 to 94 °C | CC(C)(C)c1cc(CCC(=O)NN2C(=O)C=CC2=O)cc(C(C)(C)C)c1O |
| 98 to 100 °C | CC(C)(C)c1nc(C=CC(=O)COc2ccccc2)nc(C(C)(C)C)c1O |
| 205 to 207 °C | Cc1c(C(=O)Nc2ccc(N3CCN(C)CC3)c(C#N)c2)cnn1-c1ccc(F)cc1 |
| 124 to 125 °C | Cc1nc(C)c(C(C)(O)c2cocc2Br)o1 (centres undefined) |
| 140 to 145 °C | C=CCNc1cc(C(=O)OCC)nc2cn[nH]c12 |
| 281 °C | COc1ccc(C(=O)C2=C(O)C(=O)N(c3nnc(C)s3)C2c2cccc(C(=O)O)c2)cc1 (centres undefined) |
| 67 to 70 °C | Cc1nc(-n2ccc(Oc3ccccc3)cc2=O)sc1C(=O)NCc1ccccc1 |
| 208 to 209 °C | O=C(O)Cc1nc(-c2ccc(F)cc2)oc1-c1cccs1 |
| 247 to 248 °C | Cc1c(F)cc(C(C)(C)C)c(O)c1-c1nc2ccc(F)cc2c(=O)[nH]1 |
| 253 to 254 °C | CCc1[nH]n(C2CCCC2)c2nc(-c3ccc4c(c3)CCO4)nc(=O)c1-2 |
| 150 to 160 °C | Cc1ccc2c(c1)C=Cc1cc(C(C)C)ccc1C2c1cn(Cc2ccc(C(=O)O)o2)c(=O)[nH]c1=O (centres undefined) |
| 279 to 281 °C | CC(=O)Nc1ccc(CC(=O)N[C@H]2C[C@H](C(=O)O)Nc3cc(Cl)cc(Cl)c32)cc1 (relative stereo) |
| 168 °C | C1=C(c2cccs2)NN=C(c2cccs2)C1c1cccs1 (centres undefined) |

| melting point | SMILES |
| --- | --- |
| 198 to 202 °C | O=C(C[C@H]1CC[C@@H](C(=O)O)N1Cc1ccccc1)N[C@@H](Cc1ccc(OCc2c(Cl)cccc2Cl)cc1)C(=O)O |
| 181 to 183 °C | OC(CCl)COc1cccc(-c2nc(C(F)(F)F)c[nH]2)c1 (centres undefined) |
| 166 to 167 °C | O=C(O)c1ccc(O)c(Nc2cc(Cl)cc(Cl)c2)c1 |
| 84 to 87 °C | O=[N+]([O-])c1cc(Oc2ccccc2)ccc1OCc1ccccc1 |
| 221 to 222 °C | CS(=O)(=O)c1ccc(-n2nc(C(=O)N3CCOCC3)cc2-c2ccc(-c3ccco3)cc2)cc1F |
| 165 to 167 °C | CCOCc1nc2c(N)nc3c(c2n1CCCCS(=O)(=O)N(C)C)CCCC3 |
| 33 to 35 °C | CCOC(=O)CC(O)CP(=O)(OCC)OCC (centres undefined) |
| 111 to 118 °C | CCN1C(=O)C(C)(C)C(=O)N(C)c2cc(CN(CCn3ccc4oc(C)cc4c3=O)Cc3n[nH]c4c(C)cccc34)ccc21 |
| 30 to 32 °C | C=CC(O)c1ccc2ccccc2c1 (centres undefined) |
| 199 to 201 °C | C1=C(N2c3ccccc3Sc3ccccc32)N(C2=NCCC2)CC1 |
| 193 to 194 °C | COC(=O)c1sc(-c2ccc(OCc3ccc([N+](=O)[O-])cc3)c(OC)c2)cc1NC(C)=O |
| 114 °C | CCN(CC)CCN(c1cc(OC)c(C)cc1[N+](=O)[O-])S(=O)(=O)c1ccc(C)cc1 |
| 129 to 130 °C | N#Cc1ccc(OCCCCN2C(=O)c3ccccc3C2=O)cc1 |
| 150 to 151 °C | O=C(OC1C(O)COC(Oc2ccc([N+](=O)[O-])cc2)C1OC(=O)c1ccccc1)c1ccccc1 (centres undefined) |
| > 280 °C | O=S(=O)(O)c1ccc(Nc2cnnc3cc(Cl)ccc23)cc1 |
| 145 to 147 °C | Nc1nc(NCCC23CC4CC(CC(C4)C2)C3)nc2c1ncn2C1OC(CO)C(O)C1O (centres undefined) |
